# Source: article PMC7070818 (Clinical and Translational Science, 2019)
# Like-named read-outs stand apart in the source and are kept apart here.
# Key:
# [1] = fasted state; cited from earlier work
# [2] = format: in vivo, human; conditions: for AUC(0-t): AUC0–23 hours; for AUC(0-inf): AUC0–∞; for Tmax: median (range)
# [3] = cited from earlier work
# [4] = tested on: Bruton's tyrosine kinase (BTK); conditions: cited from earlier work
# [5] = male, human, plasma, oral, 140 mg, placebo phase, 140‐mg ibrutinib dose, geometric mean (geometric CV)
# [6] = male, human, plasma, oral, itraconazole phase, dose‐adjusted to a 140‐mg dose, geometric mean (geometric CV)
# [7] = male, human, plasma, oral, itraconazole phase, unadjusted, 15‐mg ibrutinib dose, geometric mean (geometric CV)
# [8] = itraconazole phase (15 mg, unadjusted) vs placebo phase (140 mg)
# [9] = itraconazole phase (dose‐adjusted to 140 mg) vs placebo phase
# [10] = itraconazole phase vs placebo phase
# [11] = itraconazole phase, dose‐adjusted to a 140‐mg dose, geometric mean (geometric CV)
# [12] = itraconazole phase, unadjusted, 15‐mg ibrutinib dose, geometric mean (geometric CV)
# [13] = placebo phase, 140‐mg ibrutinib dose, geometric mean (geometric CV)
# [14] = unadjusted, 15 mg ibrutinib during itraconazole, 140 mg during placebo
structure (smiles),measurement,setting,value
"C=CC(=O)N1CCC[C@@H](n2nc(-c3ccc(Oc4ccccc4)cc3)c3c(N)ncnc32)C1 [Ibrutinib, ibrutinib, reference compound]",Mean oral bioavailability,[1],about 3%
same,Cmax,"[2]; male, human, plasma, oral",0.192 µg/mL
same,AUC(0-t),[2]; [5],0.0744 µg·h/mL
same,AUC(0-inf),[2]; [5],0.0765 µg·h/mL
same,AUC(0-t),[2]; [6],0.755 µg·h/mL
same,AUC(0-t),[2]; [7],0.0809 µg·h/mL
same,AUC(0-inf),[2]; [6],0.764 µg·h/mL
same,AUC(0-inf),[2]; [7],0.0819 µg·h/mL
same,Cmax,"[2]; male, human, plasma, po",0.0206 µg/mL
same,Cmax,"[2]; male, human, plasma, po, 140 mg",0.022 µg/mL
same,Enhancement of bioavailability by food,[3],about twofold
same,Increase of AUC by ketoconazole,"[3]; fasted state, healthy volunteers",24 fold
same,Increase of AUC by grapefruit juice,"[3]; fed conditions, healthy adults",2.2 fold
Nc1ncnc2c1c(-c1ccc(Oc3ccccc3)cc1)nn2[C@@H]1CCCN(C(=O)C(O)CO)C1 (stereo partly shown) [PCI‐45227],Inhibitory activity toward BTK relative to parent ibrutinib,[4],about 15 times lower
same,AUC0–23 hours geometric mean ratio (90% CI),[2]; [8],"0.10 (0.08, 0.11)"
same,AUC0–∞ geometric mean ratio (90% CI),[2]; [8],"0.10 (0.09, 0.12)"
same,Cmax geometric mean ratio (90% CI),[2]; [8],"0.07 (0.06, 0.09)"
same,AUC0–23 hours geometric mean ratio (90% CI),[2]; [9],"0.91 (0.78, 1.07)"
same,AUC0–∞ geometric mean ratio (90% CI),[2]; [9],"0.97 (0.82, 1.16)"
same,Cmax geometric mean ratio (90% CI),[2]; [9],"0.68 (0.59, 0.79)"
same,t1/2 geometric mean ratio (90% CI),[2]; itraconazole phase (dose‐adjusted) column vs placebo phase,"1.3 (1.10, 1.46)"
same,t1/2,"[2]; itraconazole phase (dose‐adjusted) column, geometric mean (geometric CV)",8.1 (0.28) hour
same,"PCI‐45227/Ibrutinib AUC0‐∞ ratio, geometric mean ratio (90% CI)",[2]; [10],"0.10 (0.08, 0.12)"
same,t1/2 geometric mean ratio (90% CI),[2]; [10],"1.3 (1.10, 1.46)"
same,AUC0–23 hours,[2]; [11],214.3 (0.36) ng·hour/mL
same,AUC0–∞,[2]; [11],256.0 (0.42) ng·hour/mL
same,Cmax,[2]; [11],21.2 (0.28) ng/mL
same,AUC0–23 hours,[2]; [12],23.0 (0.36) ng·hour/mL
same,AUC0–∞,[2]; [12],27.4 (0.42) ng·hour/mL
same,t1/2,"[2]; itraconazole phase, 15‐mg ibrutinib dose, geometric mean (geometric CV)",8.1 (0.28) hour
same,Tmax,"[2]; itraconazole phase, 15‐mg ibrutinib dose",3 (1.5–4) hour
same,PCI‐45227/Ibrutinib AUC0‐∞ ratio,"[2]; itraconazole phase, geometric mean (geometric CV)",0.34 (0.28)
same,"PCI‐45227/Ibrutinib AUC0–∞ ratio during itraconazole, relative to control",[2]; itraconazole vs placebo,10 % of control
same,AUC0–23 hours,[2]; [13],235.2 (0.43) ng·hour/mL
same,AUC0–∞,[2]; [13],262.8 (0.45) ng·hour/mL
same,t1/2,[2]; [13],6.4 (0.27) hour
same,Tmax,"[2]; placebo phase, 140‐mg ibrutinib dose",3 (1.5–4) hour
same,PCI‐45227/Ibrutinib AUC0‐∞ ratio,"[2]; placebo phase, geometric mean (geometric CV)",3.4 (0.57)
same,AUC0‐∞ during itraconazole phase relative to placebo phase,[2]; [14],10%
same,Cmax during itraconazole phase relative to placebo phase,[2]; [14],7%
